The values that follow come from paper PMC12518639, “Apomorphine is a novel necroptosis inhibitor targeting mixed lineage kinase domain-like protein oligomerization” (Cell Death Discovery, 2025).

Structures can show the parent of a compound that is named as a salt. Where two headings read alike, the source gives them in different places.

One data set concerns ulcerative colitis. On the set-up: method as in PMID 34389633. The conditions noted are these: phase II trial; cited from earlier work.
The subject of a further data set is THP-1-HMGB1-Lucia cells. Description: TBZ-induced necroptosis screening by HMGB1-luciferase release. The data set is classed as cell-based, human. The conditions noted are these: 8 h, read-out: % Inhibition (luciferase activity relative to TBZ-treated supernatant); for activity at 20 µM: Homo sapiens. The protocol:
(§1) To identify potential inhibitors of the necroptosis pathway targeting MLKL or the process of p-MLKL pore formation on the membrane, we screened a library of 2150 compounds, including FDA-approved drugs and those in phase 1–3 clinical trials, using THP-1-HMGB1-Lucia™ cells expressing the HMGB1-luciferase fusion protein. The cells were treated with a necroptosis-inducing mixture containing TNF-α, BV6, and Z-VAD-FMK (TBZ) in addition to the compound library (Fig. 1A). The supernatants were harvested to measure luciferase activities for necroptosis. The luciferase activities of cell supernatants treated with TBZ alone were considered as the maximum release (100%) of HMGB1-luciferase. NEC-1, a known RIP1 inhibitor used in both humans and mice, was used as a positive control. […] Next, we performed a propidium iodide (PI) uptake assay to exclude cytotoxic compounds using THP-1 cells. Then, we selected candidate molecules that were arbitrarily less than 30% of those treated with TBZ. […] Next, the inhibition levels of p-MLKL were tested to select MLKL-targeting molecules (Figs. 1C and S1A). Compounds that reduced p-MLKL levels to less than 30% of TBZ-treated controls were considered as potential inhibitors of MLKL phosphorylation. Conversely, compounds that maintained p-MLKL levels above 70% were selected because they are presumed to prevent the formation of pores in the plasma membrane by interfering with oligomerization.
A clinical chemical library containing 2150 items (Korea Chemical Bank, South Korea), under phase 1–3 clinical trials, including FDA-approved drugs, was used to screen for necroptosis inhibitors. Each chemical was dissolved in DMSO and diluted to 20 μM in DPBS for treatment.
THP-1-HMGB1-Lucia^TM cells were pretreated with the pan-caspase inhibitor Z-VAD-FMK (50 μM, tlrl-vad, InvivoGen) and each chemical for 1 h, and followed by TNF-α (100 ng/mL, TNF0501, NKMAXBio, Seongnam, S. Korea) and Smac mimetic BV6 (10 μM, B1332-5, Biovision, Santa Clara, CA, USA), termed TBZ mixture, were added for necroptosis screening. The RIP1 inhibitor, NEC-1 (1846, Biovision), and MLKL inhibitor, NSA (432531-71-0, Sigma-Aldrich, St. Louis, MO, USA), were used as controls. The cell supernatant was harvested to measure HMGB1 levels using a luciferase assay kit (E1500, Promega, Madison, WI, USA) by a luminometer (Centro XS3 LB 960, Berthold Technologies, Bad Wildbad, Germany). The inhibition of necroptosis (%) was calculated as: (sample-treated data – medium-only data) × 100/(TBZ-treated data – medium-only data). APO [STK088477, (6aS)-6-methyl-5,6,6a,7-tetrahydro-4H-dibenzo[de,g]quinoline-10,11-diol, Vitas-M Laboratory, Hong Kong] was stored at −70 °C after aliquoting with DMSO. APO was used after dilution in DPBS. APO is susceptible to auto-oxidation in solution in the presence of light and air. DPBS containing 5 mM DTT was used for Re-APO. Ox-APO was prepared by incubating APO in DPBS at 25 °C for 24 h in the presence of light and air, followed by removal of any precipitate by filtration through 0.2 μm.

For another data set, the system named is p-MLKL and p-RIP1. Put plainly: Western blot of cytosol and membrane fractions. The data set is classed as cell-based, human. The conditions noted are these: THP-1, TBZ, 20 μM. The protocol: (§2) The cells were harvested and lysed in 1× RIPA buffer (R4100-010, GenDEPOT, Katy, TX, USA) containing protease (P3100-001, GenDEPOT) and phosphatase (1862495, Thermo Fisher Scientific) inhibitors. WCLs were then centrifuged at 20,000×g for 30 min at 4 °C and subjected to non-reducing or reducing 8–12% SDS-PAGE gel electrophoresis. The membrane was blocked with 5% non-fat milk in TBS and probed with antibodies. Antibodies to hMLKL (14993S), mMLKL (97705S), phospho-hMLKL (Ser358) (91689S), phospho-mMLKL (Ser345) (37333S), phospho-hRIP1 (Ser166) (65746S), mRIP1 (3493S), phospho-mRIP1 (Ser321) (38662S), phospho-hRIP3 (Ser227) (93654), mRIP3 (95702S), p-mRIP3 (Thr231/Ser232) (91702S), and LDH (2012S) (Cell Signaling Technology, Danvers, MA, USA), and GAPDH (LF-PA0018, Abfrontier, S. Korea), hRIP1 (ab72139, Abcam, Cambridge, UK), hRIP3 (sc-135170, Santa Cruz Biotechnology, Dallas, TX, USA), HMGB1 (ab78923, Abcam), and LAMP1 (ab24170, Abcam) antibodies were used.
Cell membrane fractionation was performed to determine whether MLKL oligomers were retained in the cell membrane fraction. Briefly, THP-1 cells were harvested and resuspended in 20 mM TBS (pH 7.4) containing 10 mM KCl, 1 mM MgCl2, protease inhibitor (P3100-001, GenDEPOT), and phosphatase inhibitor (1862495, Thermo Fisher Scientific). The cell suspension was passed through a 22-gauge needle and centrifuged at 20,000×g for 15 min and stored as the cytoplasmic fraction. The pellet was resuspended in lysis buffer and stored as the crude membrane fraction.
(§3) Fig. S1 Assessment of p-MLKL inhibition to identify MLKL-targeting molecules. (A) Quantification graph corresponding to Fig. 1C. THP-1 cells were treated with TBZ in the presence of secondarily selected compounds (S1–S72, 20 μM). Whole-cell lysates (WCLs) were collected and subjected to Western blot analysis under reducing conditions using antibodies against p-MLKL, MLKL, and GAPDH. The p-MLKL/MLKL ratio was quantified and compared to that of TBZ-treated cells. Data represent the mean of three independent experiments. (B) Quantification graph corresponding to Fig. 1D. THP-1 cells were treated with TBZ in the presence of third-round selected compounds (S1–S62, 20 μM). Cytosolic and membrane fractions were collected and analyzed by Western blot under reducing conditions. The levels of p-MLKL and p-RIP1 were normalized to LDH (cytosolic marker) and LAMP1 (membrane marker), respectively. Quantified ratios were compared to those of TBZ-treated cells (n = 3 independent experiments).
(In western blotting, separated proteins are transferred to a membrane and probed.)

The next data set concerns p-MLKL. Put plainly: Western blot of phosphorylated MLKL in whole cell lysates. The conditions noted are these: Homo sapiens, read-out: p-MLKL/MLKL ratio relative to TBZ-treated cells (% Value). In kind it is cell-based, human. Here is the method:
as §1, §2
as §3, with “THP-1 cells were treated with TBZ in the presence of secondarily selected compounds (S1–S72, 20 μM).” left out, “THP-1 cells were treated with TBZ in the presence of third-round selected compounds (S1–S62, 20 μM).” left out

Setting [1] is: 20 μM compound with TBZ, TBZ alone = 100, DPBS = 0.
Setting [2] is: THP-1, TBZ and 20 μM compound, 8 h, whole cell lysates.

With `CN1C(=O)[C@@H](NC(=O)c2nnc(Cc3ccccc3)[nH]2)COc2ccccc21` [GSK2982772], in the data set with ulcerative colitis, the therapeutic benefit entry is “failed to show significant therapeutic benefit” and the tolerability in humans result is “well tolerated”.

As for `CN1CCN(c2ccc(Nc3c4ccccc4nc4ccccc34)cc2)CC1` [S1, JP-1302], the activity in the data set on THP-1-HMGB1-Lucia cells (setting [1]) was determined as 0.4%. For the same compound, the RIP1 phosphorylation result in the data set with p-MLKL and p-RIP1 is “seemed to inhibit”.

Consider `COc1cc2ncnc(Nc3cccc(Cl)c3)c2cc1OC` [S3, Tyrphostin], for which the activity at 20 µM with THP-1-HMGB1-Lucia cells (setting [1]) amounted to 7.5%; in the data set with p-MLKL (setting [2]), 70%. For the same compound, the “effect on p-MLKL levels in both cytosolic and membrane fractions” value in the data set on p-MLKL and p-RIP1 was “almost no effect”.

On to `CCCCC1C(=O)N(c2ccccc2)N(c2ccc(O)cc2)C1=O` (stereo not drawn) [S4, Oxyphenbutazone], for which the activity at 20 µM in the data set with THP-1-HMGB1-Lucia cells (setting [1]) came to 0%; in the data set on p-MLKL (setting [2]), 38%.

For `Cc1ccc(Nc2nccc(N(C)c3ccc4c(C)n(C)nc4c3)n2)cc1S(N)(=O)=O` [S10, Pazopanib], the activity at 20 µM was 9.4% in the data set on THP-1-HMGB1-Lucia cells (setting [1]) and 86% in the data set on p-MLKL (setting [2]).

On to `CC(=O)Oc1ccccc1C(=O)Nc1ncc([N+](=O)[O-])s1` [S15, Nitazoxanide], for which the activity at 20 µM in the data set on THP-1-HMGB1-Lucia cells (setting [1]) was 1.2%; in the data set with p-MLKL (setting [2]) it was 100%. The “effect on p-MLKL levels in both cytosolic and membrane fractions” value in the data set on p-MLKL and p-RIP1 is recorded as “almost no effect”.

On to `CC1(C)CC[C@]2(C(=O)O)CC[C@]3(C)[C@H](C(=O)C=C4[C@@]5(C)C=C(C#N)C(=O)C(C)(C)[C@@H]5CC[C@]43C)[C@@H]2C1` [S16, Bardoxolone], for which the activity at 20 µM in the data set with THP-1-HMGB1-Lucia cells (setting [1]) and in the data set with p-MLKL (setting [2]) was 0% each time.

In the case of `Cc1ccc(C(=O)Nc2ccc(CN3CCN(C)CC3)c(C(F)(F)F)c2)cc1C#Cc1cnc2cccnn12` [S17, Ponatinib], the activity at 20 µM with THP-1-HMGB1-Lucia cells was found to be 4.5%; in the data set with p-MLKL (THP-1, 8 h), 2%.

Take `O=C(Nc1ccc(Br)cc1)c1cccc(S(=O)(=O)Nc2ccc(Br)cc2)c1` [S19, N-(4-Bromophenyl)-3-[[(4-bromophenyl)amino]sulfonyl]benzamide]: the activity at 20 µM in the data set with THP-1-HMGB1-Lucia cells (setting [1]) turned out to be 5.3%; with p-MLKL (setting [2]), 55%.

In the case of `Cc1ncc(-c2ccnc(Nc3ccc(S(C)(=O)=O)cc3)n2)n1C(C)C` [S28, AZD 5438], the results for the activity at 20 µM in the data set with THP-1-HMGB1-Lucia cells (setting [1]) and in the data set on p-MLKL (setting [2]) were 0% and 55%, respectively.

Turning to `CC(C)(C)c1nc(-c2cccc(NS(=O)(=O)c3c(F)cccc3F)c2F)c(-c2ccnc(N)n2)s1` [S31, Dabrafenib], the activity at 20 µM in the data set on THP-1-HMGB1-Lucia cells (setting [1]) was 4.5%; in the data set on p-MLKL (setting [2]), 0%.

For `C=C1C(=O)O[C@@H]2/C=C(\C)CC/C=C(\C)CC[C@@H]12` [S35, Costunolide], the values for the activity at 20 µM in the data set with THP-1-HMGB1-Lucia cells (setting [1]) and with p-MLKL (setting [2]) were 9% and 30%, respectively.

Turning to `C=C1C(=O)O[C@H]2[C@H]1CC/C(C)=C/CC[C@@]1(C)O[C@@H]21` [S38, Parthenolide], the values for the activity at 20 µM in the data set with THP-1-HMGB1-Lucia cells (setting [1]) and in the data set with p-MLKL (setting [2]) were 0% and 40%, respectively.

For `COc1cc2nccc(Oc3ccc(NC(=O)Nc4cc(C)on4)c(Cl)c3)c2cc1OC` [S46, Tivozanib], the activity at 20 µM in the data set with THP-1-HMGB1-Lucia cells (setting [1]) was determined as 9%; in the data set with p-MLKL (setting [2]), 18%.

On to `O=C1c2c(O)ccc(O)c2C(=O)c2c(NCCNCCO)ccc(NCCNCCO)c21` [S58, Mitoxantrone hydrochloride], for which the activity at 20 µM was determined as 7.6% in the data set on THP-1-HMGB1-Lucia cells (setting [1]) and 39% in the data set with p-MLKL (setting [2]).

For `COc1ccc(CN2CCN(C(c3ccc(F)cc3)c3ccc(F)cc3)CC2)c(OC)c1OC` [S64, Lomerizine hydrochloride], the activity in the data set with THP-1-HMGB1-Lucia cells (setting [1]) came out at 5.3%.

In the case of `CC[C@@]1(O)C(=O)OCc2c1cc1n(c2=O)Cc2cc3c(CN(C)C)c(O)ccc3nc2-1` [S65, Topotecan hydrochloride], the activity at 20 µM with THP-1-HMGB1-Lucia cells (setting [1]) amounted to 5.2%.

Regarding `COc1cccc2c1C(=O)c1c(O)c3c(c(O)c1C2=O)C[C@@](O)(C(=O)CO)C[C@@H]3O[C@H]1C[C@H](N)[C@H](O)[C@H](C)O1` [S66, Doxorubicin], the activity at 20 µM in the data set with THP-1-HMGB1-Lucia cells (setting [1]) turned out to be 8.6%.

As to `O=S(=O)(c1cccc2cnccc12)N1CCCNCC1` [S68, Fasudil hydrochloride], the activity at 20 µM in the data set with THP-1-HMGB1-Lucia cells (setting [1]) was 6%.

`O=C(N[C@H](CO)[C@H](O)c1ccc([N+](=O)[O-])cc1)C(Cl)Cl` [S69, Chloramphenicol]: in the data set with THP-1-HMGB1-Lucia cells (setting [1]), the activity at 20 µM came out at 0%.

With `CN(C)CCOC(c1ccccc1)c1ccccc1` [S70, Diphenhydramine], in the data set with THP-1-HMGB1-Lucia cells (setting [1]), the activity at 20 µM was 19.1%.

For the compound `CCCc1c(-c2ccc(O)cc2)nn(-c2ccc(O)cc2)c1-c1ccc(O)cc1` [S71, PPT], in the data set on THP-1-HMGB1-Lucia cells (setting [1]), the activity is 1.5%.

`O=C(Nc1ccc([N+](=O)[O-])cc1Cl)c1cc(Cl)ccc1O` [S72, Niclosamide]: the activity at 20 µM came out at 0.9% in the data set with THP-1-HMGB1-Lucia cells (setting [1]) and 35% with p-MLKL (setting [2]).

With JTE 013 [S11], the activity with THP-1-HMGB1-Lucia cells (setting [1]) is 5.8%.
